Columns and labels:
[1] = biological target: T1, hyperactive mutant BKCa channels (hSlo G803D/N806K) stably expressed in AD 293 cells (Homo sapiens, UniProt Q12791, G856D/N859K); assay: Cell-based fluorescence assay (FluxOR Potassium Ion Channel Assay) of BKCa channel activation
T1 construct: expressed in transfected cells
Procedure: AD 293 cells, which are derivatives of the commonly used HEK 293 cell line and stably express hyperactive mutant BKCa channels (hSlo G803D/N806K) to sensitively detect the effect (Lee et al., 2013), were cultured in Dulbecco' modified Eagle medium (Hyclone, Logan, Utah, […]) supplemented with 10% fetal bovine serum, and selected with 1 mg/mL Geneticin (Gibco, Amarillo, TX, USA). 20,000 cells per well were seeded on a 96-well clear-bottom black plate (Corning, New York, NY, USA) coated with poly-D-lysine (Gibco). BKCa channel activity was measured using the cell-based fluorescence assay, FluxOR Potassium Ion Channel Assay (Thermo Fisher Scientific, Waltham, MA, USA). Experimental procedures were performed according to the manufacturer's instructions. The cells were treated with test compounds dissolved in assay buffer for 15 minutes. Fluorescence was measured using a FlexStation3 multimode microplate reader (Molecular Devices, Silicon Valley, CA, USA) and SoftMax Pro (Molecular Devices). Excitation and emission wavelengths were set to 485 nm and 528 nm, respectively. Fluorescence signals were acquired every 2 seconds for 120 seconds and normalized by the relative fluorescence unit (RFU). The efficacy of a channel activator was determined by analyzing changes (ΔRFU) in the RFU for 80 seconds after channel stimulation.
Activation effects of the synthesized compounds on BKCa channels were evaluated using cell-based fluorescence assay. NS11021 was used as the positive control. The effects were determined based on the initial rate (vi) of channel activation and the apparent EC50 value obtained from fitting data of the dose-response curve. Here, Vi means change values for 4 seconds at the start of channel opening (vi={RFU(t=24 s)−RFU(t=20 s)}/4 s). […]

[2] = tested on: Spontaneously hypertensive rats (SHR); assay: In vivo model of OAB: urination in spontaneously hypertensive rats after oral administration; parameters: species or system rat
Procedure: Male rats with body weights of 300 to 350 g were deprived of food and water overnight before the experiment, and then were randomly divided into a drug administration group and a control group. All animals were provided free access to water for 2 hours, and then 10 mL/kg of vehicle solution [DMSO:PEG400:distilled water=5:40:55 (v/v)] as a test substance were orally administered. After oral administration of the test substance, the rats were placed in a metabolic cage and the number of urinations and urine volume were measured for 3 hours.
The in vivo treatment effects of the compounds for […] were investigated in spontaneously hypertensive rats (SHR) with OAB symptoms after oral administration. Wistar-Kyoto rats (WKY) were used as the healthy animal control, and urination frequency was increased more than 2.8 times in SHR compared to WKY. Compound 208 reduced the urination frequency in SHR (50 mg/kg) by 33%, which is quite close to the urination frequency of the normal group (see FIG. 18).

[3] = biological target: T1, hyperactive mutant BKCa channels (hSlo G803D/N806K) stably expressed in AD 293 cells; assay: Cell-based fluorescence assay (FluxOR Potassium Ion Channel Assay) of BKCa channel activation; details: compounds at 5 μM; n=3; vehicle 0.26

T1 sequence (Q12791 whole entry G856D/N859K): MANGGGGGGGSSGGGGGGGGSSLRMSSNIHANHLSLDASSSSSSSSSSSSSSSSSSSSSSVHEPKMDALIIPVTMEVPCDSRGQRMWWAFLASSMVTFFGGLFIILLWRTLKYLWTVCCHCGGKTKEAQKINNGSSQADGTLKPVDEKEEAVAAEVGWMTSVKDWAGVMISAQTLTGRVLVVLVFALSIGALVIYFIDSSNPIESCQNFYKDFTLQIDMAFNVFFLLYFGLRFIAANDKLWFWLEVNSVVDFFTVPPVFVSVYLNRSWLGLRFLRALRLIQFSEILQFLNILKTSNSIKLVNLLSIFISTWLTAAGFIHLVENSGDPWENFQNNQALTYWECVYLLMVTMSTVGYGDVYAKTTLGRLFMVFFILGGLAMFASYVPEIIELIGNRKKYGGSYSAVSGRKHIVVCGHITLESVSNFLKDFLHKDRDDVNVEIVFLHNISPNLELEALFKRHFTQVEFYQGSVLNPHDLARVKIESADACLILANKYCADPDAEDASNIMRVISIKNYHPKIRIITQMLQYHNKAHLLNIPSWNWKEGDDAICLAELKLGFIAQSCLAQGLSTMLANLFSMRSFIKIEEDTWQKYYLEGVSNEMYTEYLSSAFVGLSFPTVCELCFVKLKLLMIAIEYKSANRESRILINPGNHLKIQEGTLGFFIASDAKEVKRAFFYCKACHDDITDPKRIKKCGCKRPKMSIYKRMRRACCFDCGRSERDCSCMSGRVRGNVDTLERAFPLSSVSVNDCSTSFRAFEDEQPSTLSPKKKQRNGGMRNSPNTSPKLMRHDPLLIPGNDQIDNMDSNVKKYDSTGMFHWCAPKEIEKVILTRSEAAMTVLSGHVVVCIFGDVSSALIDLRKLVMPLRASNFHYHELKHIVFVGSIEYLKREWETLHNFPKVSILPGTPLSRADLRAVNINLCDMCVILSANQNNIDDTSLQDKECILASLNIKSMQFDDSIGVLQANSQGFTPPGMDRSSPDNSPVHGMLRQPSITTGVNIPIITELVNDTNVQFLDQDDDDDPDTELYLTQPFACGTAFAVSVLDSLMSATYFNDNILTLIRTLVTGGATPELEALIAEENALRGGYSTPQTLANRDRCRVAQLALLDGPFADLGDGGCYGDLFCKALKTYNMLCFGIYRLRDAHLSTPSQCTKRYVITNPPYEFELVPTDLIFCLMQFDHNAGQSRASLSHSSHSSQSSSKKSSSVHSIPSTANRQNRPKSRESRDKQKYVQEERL

## O=C(Nc1cccc(C(F)(F)F)c1)c1sc(=S)n2c1[nH]c(=O)c1cc(Br)ccc12 [Compound 208, 7-bromo-5-oxo-1-thioxo-N-(3-(trifluoromethyl)phenyl)-4,5-dihydro-1H-thiazolo[3,4-a]quinazoline-3-carboxamide]
[1]; fit of dose-response curve of initial rates, read-out: Apparent EC50 based on vi
  EC50: 2890 nM
[2]; 50 mg/kg oral
  reduction of urination frequency: 33%

## O=C(O)c1ccc(Cl)c2c1[nH]c1c3ccc(C(F)(F)F)cc3oc12 [LDD175, reference compound]
[1]; 3 μM
  activation effect on the BKCa channels at a single concentration: significant activation effects
[3]
  Activity (ΔRFU normalized by activities of LDD175): 1.00

## COc1cc2c(=O)[nH]c3c(C(=O)Nc4cc(Cl)ccc4C)sc(=S)n3c2cc1OC [TTQC-17, N-(5-chloro-2-methylphenyl)-7,8-dimethoxy-5-oxo-1-thioxo-4,5-dihydro-1H-thiazolo[3,4-a]quinazoline-3-carboxamide]
[3]
  Activity (ΔRFU normalized by activities of LDD175): 0.64

## COc1ccc(OC)c(NC(=O)c2sc(=S)n3c2[nH]c(=O)c2cc(C)ccc23)c1 [TTQC-18, N-(2,5-dimethoxyphenyl)-7-methyl-5-oxo-1-thioxo-4,5-dihydro-1H-thiazolo[3,4-a]quinazoline-3-carboxamide]
[3]
  Activity (ΔRFU normalized by activities of LDD175): 0.63

## CCc1ccccc1NC(=O)c1sc(=S)n2c1[nH]c(=O)c1cc3c(cc12)OCO3 [TTQC-19, N-(2-ethylphenyl)-5-oxo-1-thioxo-4,5-dihydro-1H-[1,3]dioxolo[4,5-g]thiazolo[3,4-a]quinazoline-3-carboxamide]
[3]
  Activity (ΔRFU normalized by activities of LDD175): 0.62

## O=C(NCc1ccccc1Cl)c1sc(=S)n2c1[nH]c(=O)c1cc(Br)ccc12 [TTQC-20, 7-bromo-N-(2-chlorobenzyl)-5-oxo-1-thioxo-4,5-dihydro-1H-thiazolo[3,4-a]quinazoline-3-carboxamide]
[3]
  Activity (ΔRFU normalized by activities of LDD175): 0.62

## O=C(NCc1ccccc1Cl)c1sc(=S)n2c1[nH]c(=O)c1cc(Cl)ccc12 [TTQC-21, 7-chloro-N-(2-chlorobenzyl)-5-oxo-1-thioxo-4,5-dihydro-1H-thiazolo[3,4-a]quinazoline-3-carboxamide]
[3]
  Activity (ΔRFU normalized by activities of LDD175): 0.60

## COc1cc2c(=O)[nH]c3c(C(=O)Nc4ccccc4)sc(=S)n3c2cc1OC [TTQC-22, 7,8-dimethoxy-5-oxo-N-phenyl-1-thioxo-4,5-dihydro-1H-thiazolo[3,4-a]quinazoline-3-carboxamide]
[3]
  Activity (ΔRFU normalized by activities of LDD175): 0.57

## O=C(NC1CCCC1)c1sc(=S)n2c1[nH]c(=O)c1ccc(Cl)cc12 [TTQC-23, 8-chloro-N-cyclopentyl-5-oxo-1-thioxo-4,5-dihydro-1H-thiazolo[3,4-a]quinazoline-3-carboxamide]
[3]
  Activity (ΔRFU normalized by activities of LDD175): 0.55

## COc1ccccc1NC(=O)c1sc(=S)n2c1[nH]c(=O)c1cc3c(cc12)OCO3 [TTQC-24, N-(2-methoxyphenyl)-5-oxo-1-thioxo-4,5-dihydro-1H-[1,3]dioxolo[4,5-g]thiazolo[3,4-a]quinazoline-3-carboxamide]
[3]
  Activity (ΔRFU normalized by activities of LDD175): 0.51

## CNC(=O)c1sc(=S)n2c1[nH]c(=O)c1ccc(Cl)cc12 [TTQC-25, 8-chloro-N-methyl-5-oxo-1-thioxo-4,5-dihydro-1H-thiazolo[3,4-a]quinazoline-3-carboxamide]
[3]
  Activity (ΔRFU normalized by activities of LDD175): 0.50

## O=C(Nc1ccc(Br)cc1F)c1sc(=S)n2c1[nH]c(=O)c1ccc(Cl)cc12 [TTQC-26, N-(4-bromo-2-fluorophenyl)-8-chloro-5-oxo-1-thioxo-4,5-dihydro-1H-thiazolo[3,4-a]quinazoline-3-carboxamide]
[3]
  Activity (ΔRFU normalized by activities of LDD175): 0.49

## O=C(NCC1CCCO1)c1sc(=S)n2c1[nH]c(=O)c1cc(Cl)ccc12 (centres unmarked) [TTQC-27, 7-chloro-5-oxo-N-((tetrahydrofuran-2-yl)methyl)-1-thioxo-4,5-dihydro-1H-thiazolo[3,4-a]quinazoline-3-carboxamide]
[3]
  Activity (ΔRFU normalized by activities of LDD175): 0.47

## CCOc1ccccc1NC(=O)c1sc(=S)n2c1[nH]c(=O)c1cc(Cl)ccc12 [TTQC-28, 7-chloro-N-(2-ethoxyphenyl)-5-oxo-1-thioxo-4,5-dihydro-1H-thiazolo[3,4-a]quinazoline-3-carboxamide]
[3]
  Activity (ΔRFU normalized by activities of LDD175): 0.45

## COc1cccc(CNC(=O)c2sc(=S)n3c2[nH]c(=O)c2ccc(Cl)cc23)c1 [TTQC-29, 8-chloro-N-(3-methoxybenzyl)-5-oxo-1-thioxo-4,5-dihydro-1H-thiazolo[3,4-a]quinazoline-3-carboxamide]
[3]
  Activity (ΔRFU normalized by activities of LDD175): 0.45

## O=C(c1sc(=S)n2c1[nH]c(=O)c1cc(Br)ccc12)N1CCCCC1 [TTQC-30, 7-bromo-3-(piperidine-1-carbonyl)-1-thioxo-1H-thiazolo[3,4-a]quinazolin-5(4H)-one]
[3]
  Activity (ΔRFU normalized by activities of LDD175): 0.37

## Cc1ccc(NC(=O)c2sc(=S)n3c2[nH]c(=O)c2cc(C)ccc23)c(C)c1 [TTQC-31, N-(2,4-dimethylphenyl)-7-methyl-5-oxo-1-thioxo-4,5-dihydro-1H-thiazolo[3,4-a]quinazoline-3-carboxamide]
[3]
  Activity (ΔRFU normalized by activities of LDD175): 0.34

## CCc1ccc(NC(=O)c2sc(=S)n3c2[nH]c(=O)c2cc(Br)ccc23)cc1 [TTQC-32, 7-bromo-N-(4-ethylphenyl)-5-oxo-1-thioxo-4,5-dihydro-1H-thiazolo[3,4-a]quinazoline-3-carboxamide]
[3]
  Activity (ΔRFU normalized by activities of LDD175): 0.34

## COc1ccc(CNC(=O)c2sc(=S)n3c2[nH]c(=O)c2ccc(Cl)cc23)cc1 [TTQC-33, 8-chloro-N-(4-methoxybenzyl)-5-oxo-1-thioxo-4,5-dihydro-1H-thiazolo[3,4-a]quinazoline-3-carboxamide]
[3]
  Activity (ΔRFU normalized by activities of LDD175): 0.34

## COc1ccc(OC)c(NC(=O)c2sc(=S)n3c2[nH]c(=O)c2ccc(Cl)cc23)c1 [TTQC-34, 8-chloro-N-(2,5-dimethoxyphenyl)-5-oxo-1-thioxo-4,5-dihydro-1H-thiazolo[3,4-a]quinazoline-3-carboxamide]
[3]
  Activity (ΔRFU normalized by activities of LDD175): 0.31

## O=C(O[C@H]1CN2CCC1CC2)N1CCc2ccccc2[C@@H]1c1ccccc1 [solifenacin succinate, reference compound]
[2]; 5 mg/kg oral, 3 hours, SHR vehicle 8.2
  number of urinations: 4.2

Source: patent US20240398813A1, “PHARMACEUTICAL COMPOSITION FOR PREVENTING OR TREATING OVERACTIVE BLADDER” (GWANGJU INSTITUTE OF SCIENCE AND TECHNOLOGY, priority 2021, published 2024)
